Measurements from PubChem BioAssay AID248 (DTP/NCI, 2004).
Several values for one entry are separate records, joined by “and”; a condition that tells them apart may be missing. Equal entries are not always repeated. Inconclusive results and toxic doses are left out. Rule as the data show it: active = T/C of 150% or more; inactive = T/C below 125%.

Test system: L1210 leukemia ip in BDF1 mice, survival T/C
Experiment: NCI In Vivo Anticancer Drug Screen. Data for tumor model L1210 Leukemia (intraperitoneal) in B6D2F1 (BDF1) mice
Conditions: endpoint: mean survival time, higher = longer survival
Outline: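 Each compound was tested against a transplantable tumor grown in mice. The endpoint was survival, with treated animals benchmarked against vehicle controls as a simple ratio.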

[1] = dose: 100.0 mg/kg/injection, schedule: Q04DX003 (ip), vehicle: saline
[2] = dose: 200.0 mg/kg/injection, schedule: Q04DX003 (ip), vehicle: saline
[3] = dose: 100.0 mg/kg/injection, schedule: Q04DX003 (ip), vehicle: Klucel (hydroxypropylcellulose) (HPC)
[4] = dose: 200.0 mg/kg/injection, schedule: Q04DX003 (ip), vehicle: Klucel (hydroxypropylcellulose) (HPC)
[5] = dose: 400.0 mg/kg/injection, schedule: Q04DX003 (ip), vehicle: Klucel (hydroxypropylcellulose) (HPC)
[6] = dose: 100.0 mg/kg/injection, schedule: Q04DX002 (ip), vehicle: Klucel (hydroxypropylcellulose) (HPC)
[7] = dose: 200.0 mg/kg/injection, schedule: Q04DX002 (ip), vehicle: Klucel (hydroxypropylcellulose) (HPC)
[8] = dose: 400.0 mg/kg/injection, schedule: Q04DX002 (ip), vehicle: Klucel (hydroxypropylcellulose) (HPC)
[9] = dose: 100.0 mg/kg/injection, schedule: Q01DX009 (ip), vehicle: saline
[10] = dose: 100.0 mg/kg/injection, schedule: Q04DX003 (ip), vehicle: saline with Tween-80
[11] = dose: 200.0 mg/kg/injection, schedule: Q04DX003 (ip), vehicle: saline with Tween-80
[12] = dose: 400.0 mg/kg/injection, schedule: Q04DX003 (ip), vehicle: saline with Tween-80
[13] = dose: 100.0 mg/kg/injection, schedule: Q01DX009 (ip), vehicle: Klucel (hydroxypropylcellulose) (HPC)
[14] = dose: 200.0 mg/kg/injection, schedule: Q01DX009 (ip), vehicle: Klucel (hydroxypropylcellulose) (HPC)
[15] = dose: 400.0 mg/kg/injection, schedule: Q01DX009 (ip), vehicle: Klucel (hydroxypropylcellulose) (HPC)

Measured: T/C

Cn1ncc(C(=O)O)c1NN=O
inactive: dose: 50.0 mg/kg/injection, schedule: Q04DX003 (ip), vehicle: saline 104 % of control | dose: 100.0 mg/kg/injection, schedule: Q01DX001 (ip), vehicle: carboxymethylcellulose (CMC) 106 % of control | [1] 105 % of control | dose: 200.0 mg/kg/injection, schedule: Q01DX001 (ip), vehicle: carboxymethylcellulose (CMC) 108 % of control | [2] 96 % of control | dose: 400.0 mg/kg/injection, schedule: Q01DX001 (ip), vehicle: carboxymethylcellulose (CMC) 102 % of control

CC1(C)c2ccccc2C(O)(CCl)c2ccccc21
inactive: [3] 104 % of control | [4] 112 % of control | [5] 94 % of control

CC(=O)OC(C)c1ccc(Cl)cc1 (centres undefined)
inactive: dose: 100.0 mg/kg/injection, schedule: Q04DX002 (ip), vehicle: saline with Tween-80 101 % of control | dose: 200.0 mg/kg/injection, schedule: Q04DX002 (ip), vehicle: saline with Tween-80 97 % of control | dose: 400.0 mg/kg/injection, schedule: Q04DX002 (ip), vehicle: saline with Tween-80 93 % of control

CCCCCOC(=O)COc1ccc(Cl)cc1
inactive: [6] 98 % of control | [7] 98 % of control | [8] 103 % of control

Nc1ncnc(N)c1N=O
inactive: dose: 50.0 mg/kg/injection, schedule: Q01DX009 (ip), vehicle: saline 107 % of control | [9] 91 % of control | dose: 200.0 mg/kg/injection, schedule: Q01DX009 (ip), vehicle: saline 101 % of control

CCCN(CCC)C(=O)c1cccnc1
inactive: [10] 93 % of control | [11] 96 % of control | [12] 94 % of control

O=[N+]([O-])c1cccc(/C=N/NC(=S)Nc2ccccc2)c1
inactive: [13] 89 % of control | [14] 93 % of control

O=[N+]([O-])CC(O)C(O)C(O)C(O)CO (centres undefined)
inactive: [1] 102 % of control | [2] 102 % of control | dose: 400.0 mg/kg/injection, schedule: Q04DX003 (ip), vehicle: saline 102 % of control

CC1(C)C/C(=N/O)C/C(=N\O)C1
inactive: dose: 25.0 mg/kg/injection, schedule: Q04DX003 (ip), vehicle: Klucel (hydroxypropylcellulose) (HPC) 95 % of control | dose: 50.0 mg/kg/injection, schedule: Q04DX003 (ip), vehicle: Klucel (hydroxypropylcellulose) (HPC) 96 % of control

CCCC(CCN(C)C)(CNC(=O)CN(CC)CC)c1cccc2ccccc12 (centres undefined)
inactive: dose: 50.0 mg/kg/injection, schedule: Q04DX002 (ip), vehicle: saline 105 % of control | [9] 99 % of control | dose: 100.0 mg/kg/injection, schedule: Q04DX002 (ip), vehicle: saline 100 % of control | dose: 200.0 mg/kg/injection, schedule: Q04DX002 (ip), vehicle: saline 100 % of control

Nc1nc2c(c(=O)[nH]1)N(CC(=O)O)C(CNc1ccc(C(=O)NC(CCC(=O)O)C(=O)O)cc1)CN2 (centres undefined)
inactive: dose: 100.0 mg/kg/injection, schedule: Q01DX001 (ip), vehicle: alkali diluted with saline 94 % of control | dose: 200.0 mg/kg/injection, schedule: Q01DX001 (ip), vehicle: alkali diluted with saline 93 % of control | dose: 400.0 mg/kg/injection, schedule: Q01DX001 (ip), vehicle: alkali diluted with saline 96 % of control

COc1ccc(-c2cc(-c3ccccc3)c3ccccc3n2)c(OC)c1OC
inactive: [13] 100 % of control | [14] 90 % of control | [15] 90 % of control

CCC(C#N)(c1ccccc1)c1ccccc1
inactive: [13] 96 % of control | [3] 98 % of control | [14] 94 % of control | [4] 94 % of control | [15] 94 % of control | [5] 98 % of control

CCCCS(=O)C1(CCC)OC1(c1ccccc1)c1ccccc1 (centres undefined)
inactive: dose: 100.0 mg/kg/injection, schedule: Q03DX002 (ip), vehicle: other 121 % of control | dose: 200.0 mg/kg/injection, schedule: Q03DX002 (ip), vehicle: other 102 % of control | dose: 400.0 mg/kg/injection, schedule: Q03DX002 (ip), vehicle: other 96 % of control

Cc1cc(C(=O)O)c2cccc(C(F)(F)F)c2n1
inactive: dose: 100.0 mg/kg/injection, schedule: Q01DX009 (ip), vehicle: saline with Tween-80 112 % of control | [10] 111 % of control | dose: 200.0 mg/kg/injection, schedule: Q01DX009 (ip), vehicle: saline with Tween-80 103 % of control | [11] 114 % of control | dose: 400.0 mg/kg/injection, schedule: Q01DX009 (ip), vehicle: saline with Tween-80 101 % of control | [12] 103 % of control

CC1CCN(C(=O)Nc2ccc(Cl)cc2[N+](=O)[O-])CC1
inactive: [13] 92 % of control | [14] 97 % of control | [15] 91 % of control

CCc1ccc(N2C(N)=NC(N)=NC2(C)C)cc1
inactive: dose: 25.0 mg/kg/injection, schedule: Q01DX001 (ip), vehicle: saline 104 % of control | dose: 50.0 mg/kg/injection, schedule: Q01DX001 (ip), vehicle: saline 100 % of control | dose: 100.0 mg/kg/injection, schedule: Q01DX001 (ip), vehicle: saline 105 % of control and 110 % of control

ICc1cc(CI)c(CI)cc1CI
inactive: [10] 92 % of control | [11] 91 % of control | [12] 91 % of control

CCOC(=O)CC/C(=C/c1ccccc1)[N+](=O)[O-]
inactive: dose: 25.0 mg/kg/injection, schedule: Q04DX003 (ip), vehicle: saline with Tween-80 97 % of control and 104 % of control | dose: 50.0 mg/kg/injection, schedule: Q04DX003 (ip), vehicle: saline with Tween-80 94 % of control and 98 % of control | [10] 106 % of control and 107 % of control and 121 % of control | [11] 89 % of control

C/C(=N\Sc1cccc([N+](=O)[O-])c1)c1ccccc1O
inactive: [6] 105 % of control | [7] 94 % of control | [8] 94 % of control

CC(Br)C1=CC(c2ccccc2)(c2ccccc2)c2ccccc21 (centres undefined)
inactive: [10] 90 % of control | [12] 90 % of control

O=C(O)C1CC(c2ccccc2)C(=O)O1 (centres undefined)
inactive: [6] 100 % of control | [7] 100 % of control | [8] 96 % of control

O=C(Oc1cccc(O)c1)c1ccccc1
inactive: [13] 100 % of control | [14] 102 % of control | [15] 94 % of control

O=C(NO)c1ccccc1O
active: dose: 450.0 mg/kg/injection, schedule: Q03HX032 (ip), vehicle: other 208 % of control
inactive: dose: 85.0 mg/kg/injection, schedule: Q03HX032 (ip), vehicle: other 97 % of control | [13] 104 % of control | dose: 100.0 mg/kg/injection, schedule: Q04DX002 (ip), vehicle: carboxymethylcellulose (CMC) 98 % of control and 108 % of control | dose: 100.0 mg/kg/injection, schedule: Q04DX003 (ip), vehicle: carboxymethylcellulose (CMC) 101 % of control and 118 % of control | dose: 130.0 mg/kg/injection, schedule: Q03HX032 (ip), vehicle: other 102 % of control | [14] 112 % of control | dose: 200.0 mg/kg/injection, schedule: Q01DX015 (ip), vehicle: other 105 % of control | dose: 200.0 mg/kg/injection, schedule: Q03HX032 (ip), vehicle: other 105 % of control | dose: 200.0 mg/kg/injection, schedule: Q04DX002 (ip), vehicle: carboxymethylcellulose (CMC) 98 % of control and 108 % of control | dose: 200.0 mg/kg/injection, schedule: Q04DX003 (ip), vehicle: carboxymethylcellulose (CMC) 99 % of control and 103 % of control | dose: 266.0 mg/kg/injection, schedule: Q01DX009 (ip), vehicle: saline 97 % of control | dose: 300.0 mg/kg/injection, schedule: Q01DX015 (ip), vehicle: other 93 % of control | dose: 300.0 mg/kg/injection, schedule: Q03HX032 (ip), vehicle: other 121 % of control | [15] 105 % of control | dose: 400.0 mg/kg/injection, schedule: Q01DX009 (ip), vehicle: saline 97 % of control | dose: 400.0 mg/kg/injection, schedule: Q04DX002 (ip), vehicle: carboxymethylcellulose (CMC) 96 % of control and 104 % of control | dose: 400.0 mg/kg/injection, schedule: Q04DX003 (ip), vehicle: carboxymethylcellulose (CMC) 105 % of control | dose: 450.0 mg/kg/injection, schedule: Q01DX015 (ip), vehicle: other 108 % of control | dose: 600.0 mg/kg/injection, schedule: Q01DX009 (ip), vehicle: saline 104 % of control | dose: 670.0 mg/kg/injection, schedule: Q01DX015 (ip), vehicle: other 86 % of control | dose: 900.0 mg/kg/injection, schedule: Q01DX009 (ip), vehicle: saline 104 % of control
